Assay: xn = mol fraction of the nth substance listed
Conditions: 101.3 kPa

Structure (SMILES): CC[N+](CC)(CC)CC.[Cl-] + CNCCO
- speed of sound (293.15 K, x1 = 0.0914): 1553.4 m/s
- viscosity (293.15 K, x1 = 0.0914): 20.5 mPa·s
- speed of sound (293.15 K, x1 = 0.1114): 1565.5 m/s
- viscosity (293.15 K, x1 = 0.1114): 21.9 mPa·s
- speed of sound (298.15 K, x1 = 0.0914): 1538 m/s
- viscosity (298.15 K, x1 = 0.0914): 16.7 mPa·s
- speed of sound (298.15 K, x1 = 0.1114): 1550.1 m/s
- viscosity (298.15 K, x1 = 0.1114): 17.4 mPa·s
- speed of sound (298.15 K, x1 = 0.1413): 1565.6 m/s
- viscosity (298.15 K, x1 = 0.1413): 18.8 mPa·s
- speed of sound (303.15 K, x1 = 0.0914): 1522.5 m/s
- viscosity (303.15 K, x1 = 0.0914): 13.5 mPa·s
- speed of sound (303.15 K, x1 = 0.1413): 1550.1 m/s
- viscosity (303.15 K, x1 = 0.1413): 15.2 mPa·s
- speed of sound (308.15 K, x1 = 0.1114): 1519.5 m/s
- viscosity (308.15 K, x1 = 0.1114): 11.5 mPa·s
- speed of sound (308.15 K, x1 = 0.1413): 1534.7 m/s
- viscosity (308.15 K, x1 = 0.1413): 12.4 mPa·s
- speed of sound (313.15 K, x1 = 0.0914): 1491.9 m/s
- viscosity (313.15 K, x1 = 0.0914): 9.57 mPa·s
- speed of sound (313.15 K, x1 = 0.1114): 1504.6 m/s
- viscosity (313.15 K, x1 = 0.1114): 10 mPa·s
- speed of sound (318.15 K, x1 = 0.0914): 1476.9 m/s
- viscosity (318.15 K, x1 = 0.0914): 7.92 mPa·s
- speed of sound (318.15 K, x1 = 0.1114): 1489.4 m/s
- viscosity (318.15 K, x1 = 0.1114): 8.35 mPa·s
- speed of sound (323.15 K, x1 = 0.0914): 1461.5 m/s
- viscosity (323.15 K, x1 = 0.0914): 6.5 mPa·s
- speed of sound (328.15 K, x1 = 0.1114): 1458.8 m/s
- viscosity (328.15 K, x1 = 0.1114): 5.78 mPa·s
- speed of sound (328.15 K, x1 = 0.1413): 1473.8 m/s
- viscosity (328.15 K, x1 = 0.1413): 6.23 mPa·s
- speed of sound (333.15 K, x1 = 0.0914): 1431 m/s
- viscosity (333.15 K, x1 = 0.0914): 4.57 mPa·s
- speed of sound (333.15 K, x1 = 0.1114): 1444.6 m/s
- viscosity (333.15 K, x1 = 0.1114): 4.95 mPa·s
- speed of sound (333.15 K, x1 = 0.1413): 1458.7 m/s
- viscosity (333.15 K, x1 = 0.1413): 5.41 mPa·s

Structure (SMILES): CCCC[N+](CCCC)(CCCC)CCCC.[Cl-] + CNCCO
- speed of sound (293.15 K, x1 = 0.111): 1516.6 m/s
- viscosity (293.15 K, x1 = 0.111): 34.4 mPa·s
- speed of sound (293.15 K, x1 = 0.1441): 1521.4 m/s
- viscosity (293.15 K, x1 = 0.1441): 47.4 mPa·s
- speed of sound (298.15 K, x1 = 0.1441): 1505.8 m/s
- viscosity (298.15 K, x1 = 0.1441): 34.3 mPa·s
- speed of sound (303.15 K, x1 = 0.091): 1482 m/s
- viscosity (303.15 K, x1 = 0.091): 18.5 mPa·s
- speed of sound (303.15 K, x1 = 0.111): 1485.3 m/s
- viscosity (303.15 K, x1 = 0.111): 20.8 mPa·s
- speed of sound (308.15 K, x1 = 0.091): 1466.3 m/s
- viscosity (308.15 K, x1 = 0.091): 15.1 mPa·s
- speed of sound (308.15 K, x1 = 0.111): 1469.8 m/s
- viscosity (308.15 K, x1 = 0.111): 16.8 mPa·s
- speed of sound (313.15 K, x1 = 0.091): 1450.5 m/s
- viscosity (313.15 K, x1 = 0.091): 12.7 mPa·s
- speed of sound (313.15 K, x1 = 0.111): 1454.2 m/s
- viscosity (313.15 K, x1 = 0.111): 14.1 mPa·s
- speed of sound (318.15 K, x1 = 0.111): 1438.9 m/s
- viscosity (318.15 K, x1 = 0.111): 11.6 mPa·s
- speed of sound (318.15 K, x1 = 0.1441): 1443.8 m/s
- viscosity (318.15 K, x1 = 0.1441): 14.1 mPa·s
- speed of sound (323.15 K, x1 = 0.091): 1419.5 m/s
- viscosity (323.15 K, x1 = 0.091): 8.93 mPa·s
- speed of sound (323.15 K, x1 = 0.111): 1423.6 m/s
- viscosity (323.15 K, x1 = 0.111): 9.5 mPa·s
- speed of sound (323.15 K, x1 = 0.1441): 1428.6 m/s
- viscosity (323.15 K, x1 = 0.1441): 11.8 mPa·s
- speed of sound (328.15 K, x1 = 0.091): 1404.1 m/s
- viscosity (328.15 K, x1 = 0.091): 7.38 mPa·s
- speed of sound (328.15 K, x1 = 0.1441): 1413.5 m/s
- viscosity (328.15 K, x1 = 0.1441): 10.3 mPa·s
- speed of sound (333.15 K, x1 = 0.091): 1388.5 m/s
- viscosity (333.15 K, x1 = 0.091): 6.48 mPa·s
- speed of sound (333.15 K, x1 = 0.111): 1393.1 m/s
- viscosity (333.15 K, x1 = 0.111): 6.5 mPa·s
- speed of sound (333.15 K, x1 = 0.1441): 1398.5 m/s
- viscosity (333.15 K, x1 = 0.1441): 9.58 mPa·s
